Test results: article PMC11154460, “Effects of Aqueous Boundary Layers and Paracellular Transport on the Efflux Ratio as a Measure of Active Transport Across Cell Layers” (Pharmaceutics, 2024)
Like-named read-outs stand apart in the source and are kept apart here. Blank lines part the entries; values can stand above or below the compound they belong to.

Experiments:
[1] = target: T1, P-gp (MDR1) (Homo sapiens, UniProt P08183); assay: Bi-directional transport (monolayer efflux) study across MDCK-MDR1 cell monolayers; conditions: human, HPS conditions; for Papp A→B / Papp B→A: recovery-corrected mean ± SD, n = 3; for recovery: MDCK-MDR1 cell monolayers
T1 sequence (P08183 whole entry): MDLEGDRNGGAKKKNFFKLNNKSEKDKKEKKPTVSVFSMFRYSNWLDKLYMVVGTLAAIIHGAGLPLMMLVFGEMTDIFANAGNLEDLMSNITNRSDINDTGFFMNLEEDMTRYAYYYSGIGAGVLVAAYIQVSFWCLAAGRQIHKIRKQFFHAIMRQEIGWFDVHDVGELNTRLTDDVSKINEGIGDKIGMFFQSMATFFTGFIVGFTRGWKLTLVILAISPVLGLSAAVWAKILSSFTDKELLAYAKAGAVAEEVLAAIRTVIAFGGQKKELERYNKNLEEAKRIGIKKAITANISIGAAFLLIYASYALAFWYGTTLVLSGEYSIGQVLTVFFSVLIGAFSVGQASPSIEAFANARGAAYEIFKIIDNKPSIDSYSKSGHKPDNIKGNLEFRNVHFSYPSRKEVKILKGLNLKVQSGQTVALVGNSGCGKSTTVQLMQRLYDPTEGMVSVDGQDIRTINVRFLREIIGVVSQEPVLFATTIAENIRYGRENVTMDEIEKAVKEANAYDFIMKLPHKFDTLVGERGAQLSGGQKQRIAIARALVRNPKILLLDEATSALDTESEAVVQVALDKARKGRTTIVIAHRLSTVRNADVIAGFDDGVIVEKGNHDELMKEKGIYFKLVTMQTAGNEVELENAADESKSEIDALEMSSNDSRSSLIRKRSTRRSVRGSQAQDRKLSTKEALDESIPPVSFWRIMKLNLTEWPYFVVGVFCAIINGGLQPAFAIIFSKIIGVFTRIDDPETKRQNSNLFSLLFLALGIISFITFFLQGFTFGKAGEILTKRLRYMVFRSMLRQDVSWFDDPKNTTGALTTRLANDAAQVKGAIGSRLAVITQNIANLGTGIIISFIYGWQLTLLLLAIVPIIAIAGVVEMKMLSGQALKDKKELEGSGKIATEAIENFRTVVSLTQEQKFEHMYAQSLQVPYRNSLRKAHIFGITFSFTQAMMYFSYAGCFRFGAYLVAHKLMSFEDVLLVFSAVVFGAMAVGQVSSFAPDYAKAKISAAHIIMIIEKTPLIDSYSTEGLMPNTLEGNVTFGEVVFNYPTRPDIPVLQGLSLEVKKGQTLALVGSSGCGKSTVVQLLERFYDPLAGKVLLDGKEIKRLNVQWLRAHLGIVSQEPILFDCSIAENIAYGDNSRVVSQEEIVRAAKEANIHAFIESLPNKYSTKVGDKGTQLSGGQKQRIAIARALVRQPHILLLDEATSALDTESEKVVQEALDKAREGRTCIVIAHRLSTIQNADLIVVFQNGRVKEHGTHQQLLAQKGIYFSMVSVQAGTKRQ
Procedure: (§1) As such, for this study, MDCK-II-MDR1 cells transfected with human MDR1 for P-gp expression were obtained from The Netherlands Cancer Institute (Amsterdam, The Netherlands).
(§2) For transport experiments, MDCK-MDR1 cells were used between passages 20 and 40. Cells were seeded onto 12-well PET inserts (CellQART, Northeim, Germany; pore size: 0.4 µm; filter thickness: 11.5 µm) at a density of 1.5 × 10^5 cells/insert. Inserts with a high porosity of 100 × 10^6 pores/cm ​^2 or low porosity of 2 × 10 ​^6 pores/cm ​^2 were used. After seeding, cells were maintained as described in Section 3.1.2 for 4 days to ensure confluent cell monolayer formation. The cell medium was exchanged one day before the transport experiments were performed. Prior to the transport experiments, the inserts were washed with Hank’s balanced salt solution (HBSS) to remove residual DMEM. […] For all other inserts, no inhibitor was used.
(§3) The apical-to-basolateral ( A→B direction) as well as the basolateral-to-apical ( B→A direction) transport rates of the test compounds were determined in duplicate with varying stirring and filter conditions. The three conditions tested were as follows: high-porosity filters, stirred (HPS); high-porosity filters, unstirred (HPU); and low-porosity filters, stirred (LPS). The transport buffer was HBSS with 25 mM HEPES at pH 7.4. Stock solutions were prepared in the transport buffer, and all solutions were pre-warmed to 37 °C. […] The pHs of the buffer and stock solutions prior to the experiment as well as the pHs of all samples after experiment completion were controlled with a rapid pH automated pH meter (Hudson Robotics, Inc., Springfield, NJ, USA). The pHs remained within a range of ±0.15.
(§4) Inserts were used in 12-well plates (TPP Techno Plastic Products AG, Trasadingen, Switzerland), the basolateral compartment volume was 1.6 mL, and the apical compartment volume was 0.5 mL. The transport experiments were initiated by replacing the HBSS with transport buffer and the test compound solution.
(§5) For measurement of transport in the A→B direction: Inserts were placed in 12-well plates containing transport buffer in the basolateral compartment, after which, the test compound solution was added to the apical compartment. At every sampling step, each insert was placed into a new well containing fresh, warmed assay buffer, and the old buffer was sampled. Sampling occurred at four consistent time intervals.
(§6) For measurement of transport in the B→A direction: Inserts were placed in 12-well plates containing the test compound solution in the basolateral compartment (donor), after which, transport buffer was added to the apical compartment. At each sampling time step, 300 μ L was sampled from the apical compartment (the maximum amount that could be removed without disturbing the cell layer) and replaced with an equal volume of warmed, fresh transport buffer. Sampling occurred at four consistent time intervals. Time intervals for sampling were determined uniquely for each compound and direction measured to ensure that sink conditions would be maintained throughout the experiment.

[2] = target: T2, human P-gp (Homo sapiens, UniProt P08183); assay: as above; conditions: for ER: HPS conditions
T2 sequence (P08183 whole entry): as above
Procedure: as §1, §2, §3, §4, §5, §6

[3] = target: T2, human P-gp; conditions: MDCK-MDR1, pH 7.4
Procedure: as §1, §2, §3, §4, §5, §6

[4] = target: T1, P-gp (MDR1); assay: in vitro; conditions: for efflux ratio: MDCK-MDR1, pH 7.4, ER (Papp,B→A over Papp,A→B); for efflux ratio / Papp A→B / Papp B→A: pH 7.4 ISO-pH, 12 μM (loperamide 10 μM); for Papp A→B: MDCK-MDR1, pH 7.4, Papp,A→B; for Papp A→B / Papp B→A: recovery-corrected mean ± SD; for Papp B→A: MDCK-MDR1, pH 7.4, Papp,B→A; for recovery: pH 7.4, Recovery, pH 7.4, MDCK-MDR1, 12 μM (loperamide 10 μM)
Procedure: as §1, §2, §3, §4, §5, §6

[5] = HPS: high-porosity filter, stirred
[6] = HPU: high-porosity filter, unstirred
[7] = LPS: low-porosity filter, stirred

efflux ratio ([1]; MDCK-MDR1, pH 6, ER, pHext 6 (ISO-pH)): 1.6
Papp A→B ([1]; MDCK-MDR1, pH 6, Papp,A→B, pHext 6 (ISO-pH)): 0.14 ± 0.04 ×10⁻⁶ cm/s
Papp B→A ([1]; MDCK-MDR1, pH 6, Papp,B→A, pHext 6 (ISO-pH)): 0.23 ± 0.08 ×10⁻⁶ cm/s
Papp A→B ([1]; MDCK-MDR1, pH 7, Papp,A→B, pHext 7 (ISO-pH)): 0.12 ± 0.03 ×10⁻⁶ cm/s
Papp B→A ([1]; MDCK-MDR1, pH 7, Papp,B→A, pHext 7 (ISO-pH)): 0.78 ± 0.36 ×10⁻⁶ cm/s
recovery ([1]; pH 6, Recovery, pHext 6 (ISO-pH)): 89.3 to 95.3%
recovery ([1]; pH 7, Recovery, pHext 7 (ISO-pH)): 87.8 to 93.1%
ER ([2]; pHext 6 (ISO-pH)): one
ER ([2]; pHext 7 (ISO-pH)): 6.5
ER ([2]; pHext 7 (ISO-pH), listed as doxorubicin): > 2
SMILES: COc1cccc2c1C(=O)c1c(O)c3c(c(O)c1C2=O)C[C@@](O)(C(=O)CO)C[C@@H]3O[C@H]1C[C@H](N)[C@H](O)[C@H](C)O1 [Doxorubicin, doxorubicin]

SMILES: CN(C)C(=O)C(CCN1CCC(O)(c2ccc(Cl)cc2)CC1)(c1ccccc1)c1ccccc1 [Loperamide, loperamide]
mean ERs [3]: greater than two
efflux ratio [4, 5]: 2.7 ± 0.73
efflux ratio [4, 6]: 2.8 ± 0.87
efflux ratio [4, 7]: 3.2 ± 0.91
Papp A→B [4, 5]: 46.7 ± 5.03 ×10⁻⁶ cm/s
Papp A→B [4, 6]: 9.8 ± 2.84 ×10⁻⁶ cm/s
Papp A→B [4, 7]: 5.65 ± 0.42 ×10⁻⁶ cm/s
Papp B→A [4, 5]: 126 ± 27.8 ×10⁻⁶ cm/s
Papp B→A [4, 6]: 29.2 ± 3.31 ×10⁻⁶ cm/s
Papp B→A [4, 7]: 15.9 ± 4.24 ×10⁻⁶ cm/s
recovery [4, 5]: 75 to 88.1%
recovery [4, 6]: 62.3 to 81.3%
recovery [4, 7]: 69.2 to 86.1%

mean ERs ([2]; over the conditions HPS, LPS, HPU, pH 7.4): greater than two
SMILES: C=C[C@H]1C[N@@]2CC[C@H]1C[C@@H]2[C@@H](O)c1ccnc2ccc(OC)cc12 [Quinidine, quinidine]
